Experimental data taken from the CheMixHub viscosity set.

Test: xn = mol fraction of the nth substance listed

O=CC(Cl)(Cl)Cl + CO
313.15 K, 101 kPa
Settings | viscosity [mPa·s]
x1 = 0.0365 | 0.5111
x1 = 0.1162 | 0.9078
x1 = 0.2408 | 2.096
x1 = 0.3032 | 2.491
x1 = 0.4207 | 6.085
x1 = 0.444 | 6.591
x1 = 0.4731 | 7.389
x1 = 0.5032 | 7.028
x1 = 0.5958 | 3.182
x1 = 0.7159 | 1.792
x1 = 0.8416 | 1.198
x1 = 0.9603 | 0.8738

ClC(Cl)Cl + COC(=O)OC
viscosity [mPa·s], 101.33 kPa
Settings | x2 = 0.0987 | x2 = 0.2134 | x2 = 0.3031 | x2 = 0.4027 | x2 = 0.5031 | x2 = 0.6187 | x2 = 0.7021 | x2 = 0.7996 | x2 = 0.9013
298.15 K | 0.528 | 0.553 | 0.566 | 0.57 | 0.565 | 0.559 | 0.546 | 0.545 | 0.541
303.15 K | 0.501 | 0.525 | 0.53 | 0.536 | 0.531 | 0.523 | 0.514 | 0.513 | 0.509
308.15 K | 0.475 | 0.494 | 0.504 | 0.507 | 0.502 | 0.493 | 0.484 | 0.48 | 0.48

CCOCCOCC + COCCO
viscosity [mPa·s], 101.33 kPa
Settings | 298.15 K | 308.15 K
x1 = 0.0157 | 1.497 | 1.223
x2 = 0.0142 | 0.608 | 0.529
x2 = 0.0354 | 0.617 | 0.539
x2 = 0.0658 | 0.631 | 0.549
x2 = 0.0821 | 0.639 | 0.553
x2 = 0.1085 | 0.647 | 0.561
x2 = 0.1503 | 0.663 | 0.578
x2 = 0.2016 | 0.685 | 0.592
x2 = 0.28 | 0.723 | 0.62
x2 = 0.3202 | 0.742 | 0.639
x2 = 0.3604 | 0.767 | 0.655
x2 = 0.4322 | 0.812 | 0.691
x2 = 0.4797 | 0.847 | 0.718
x2 = 0.5152 | 0.875 | 0.739
x2 = 0.5455 | 0.901 | 0.758
x2 = 0.5957 | 0.946 | 0.792
x2 = 0.6464 | 0.996 | 0.832
x2 = 0.7119 | 1.066 | 0.883
x2 = 0.7472 | 1.105 | 0.918
x2 = 0.8023 | 1.18 | 0.969
x2 = 0.8705 | 1.275 | 1.054
x2 = 0.9222 | 1.366 | 1.119
x2 = 0.9592 | 1.425 | 1.167

CCOCCOCC + COCCOCCO
viscosity [mPa·s], 101.33 kPa
Settings | 298.15 K | 308.15 K
x1 = 0.0146 | 3.47 | 2.55
x2 = 0.0162 | 0.621 | 0.538
x2 = 0.0416 | 0.646 | 0.559
x2 = 0.0613 | 0.664 | 0.574
x2 = 0.0967 | 0.703 | 0.6
x2 = 0.1691 | 0.779 | 0.666
x2 = 0.2291 | 0.85 | 0.718
x2 = 0.2741 | 0.916 | 0.765
x2 = 0.3082 | 0.964 | 0.809
x2 = 0.344 | 1.014 | 0.849
x2 = 0.4006 | 1.115 | 0.929
x2 = 0.4593 | 1.232 | 1.017
x2 = 0.5082 | 1.346 | 1.097
x2 = 0.5635 | 1.492 | 1.203
x2 = 0.6145 | 1.65 | 1.306
x2 = 0.6552 | 1.793 | 1.423
x2 = 0.6969 | 1.949 | 1.503
x2 = 0.7526 | 2.186 | 1.654
x2 = 0.8075 | 2.441 | 1.823
x2 = 0.8567 | 2.699 | 1.995
x2 = 0.9074 | 2.985 | 2.19
x2 = 0.9515 | 3.253 | 2.386

CCOCCOCC + COCCOCCOCCO
viscosity [mPa·s], 101.33 kPa
Settings | 298.15 K | 308.15 K
x2 = 0.0126 | 0.622 | 0.539
x2 = 0.0328 | 0.652 | 0.561
x2 = 0.052 | 0.688 | 0.586
x2 = 0.0807 | 0.73 | 0.617
x2 = 0.1339 | 0.824 | 0.691
x2 = 0.1806 | 0.917 | 0.765
x2 = 0.2394 | 1.047 | 0.872
x2 = 0.2918 | 1.18 | 0.978
x2 = 0.342 | 1.332 | 1.097
x2 = 0.385 | 1.473 | 1.198
x2 = 0.4103 | 1.588 | 1.262
x2 = 0.4604 | 1.801 | 1.417
x2 = 0.5091 | 2.04 | 1.573
x2 = 0.5505 | 2.273 | 1.725
x2 = 0.5978 | 2.561 | 1.923
x2 = 0.6522 | 2.935 | 2.167
x2 = 0.7117 | 3.396 | 2.476
x2 = 0.7976 | 4.169 | 2.989
x2 = 0.8577 | 4.791 | 3.415
x2 = 0.9256 | 5.588 | 3.957
x2 = 0.9633 | 6.103 | 4.311

ClC(Cl)Cl + CS(C)=O
viscosity [mPa·s], 101.33 kPa
Settings | x2 = 0.0955 | x2 = 0.2039 | x2 = 0.3021 | x2 = 0.4068 | x2 = 0.5023 | x2 = 0.6044 | x2 = 0.7038 | x2 = 0.8047 | x2 = 0.9014
298.15 K | 0.642 | 0.839 | 1.018 | 1.227 | 1.365 | 1.498 | 1.611 | 1.729 | 1.842
308.15 K | 0.576 | 0.738 | 0.882 | 1.057 | 1.171 | 1.276 | 1.366 | 1.458 | 1.545
318.15 K | 0.527 | 0.682 | 0.8 | 0.915 | 1.011 | 1.097 | 1.171 | 1.246 | 1.309

O=CC(Cl)(Cl)Cl + C[N+](=O)[O-]
viscosity [mPa·s], 101.33 kPa
Settings | x1 = 0.1002 | x1 = 0.2003 | x1 = 0.2963 | x1 = 0.4004 | x1 = 0.4966 | x1 = 0.5833 | x1 = 0.6948 | x1 = 0.8007 | x1 = 0.8965
298.15 K | 0.661 | 0.7023 | 0.7591 | 0.8043 | 0.8435 | 0.8874 | 0.9389 | 0.9876 | 1.028
323.15 K | 0.5186 | 0.5507 | 0.5793 | 0.6238 | 0.6316 | 0.6661 | 0.6895 | 0.7155 | 0.7491

O=C(O)CCl + C[N+](C)(C)CCO.[Cl-]
101 kPa, x2 = 0.333
Settings | viscosity [mPa·s]
293.15 K | 161
298.15 K | 117.9
303.15 K | 88.59
308.15 K | 68.11
313.15 K | 53.44
318.15 K | 42.65
323.15 K | 34.65
